Source: patent publication US10940139B2, “Compounds that interact with the Ras superfamily for the treatment of cancers, inflammatory diseases, rasopathies, and fibrotic disease” (Shy Therapeutics LLC, priority 2017, dated 2021)

tested on: MAPK phosphorylation in PANC-1 pancreatic cancer cell line; assay: MAPK cell-based phosphorylation assay (cell-direct ELISA, EGF stimulation); details: Homo sapiens, * = tested at 10 μM
Method in brief: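 Cell-direct ELISA measured phospho-MAPK, with fluorescence read at 595 nm from AmpliFlu Red. Before fixation, PANC-1 cells starved overnight received 6 hours of compound (30 μM single dose or serial dilutions, 0.3% DMSO, 37° C), followed by 1.5 ng/ml EGF for 15 min.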

SMILES	inhibition at 10 µM [%]
COc1cnc(-c2nccn2C)nc1O [drawing 1273]	25 to 50
Nc1cccc(-c2csc3c(O)nc(-c4ccccn4)nc23)n1 [drawing 1274]	51 to 75
Cc1sc2c(O)nc(-c3ccccn3)nc2c1-c1ccccc1Cl [drawing 1275]	76 to 100
COc1cnc(-c2cnc[nH]2)nc1O [drawing 1276]	1 to 25
COc1cnc(CNC(=O)c2csc3nc(-c4ccccn4)nc(N)c23)[nH]c1=O [drawing 1277]	25 to 50
Oc1nc(-c2ccccn2)nc2c(C3CC3)csc12 [drawing 1278]	51 to 75
Oc1nc(-c2ccccn2)nc2c(CC3CNC3)csc12 [drawing 1279]	0
COc1cnc(CNC(=O)c2csc3c(O)nc(-c4ccccn4)nc23)[nH]c1=O [drawing 1280]	0
COc1cnc(CNC(=O)c2cc3nc(-c4ccccn4)nc(O)c3s2)[nH]c1=O [drawing 1281]	51 to 75
Cc1sc2c(O)nc(-c3ccccn3)nc2c1Br [drawing 1282]	76 to 100
COc1cnc(CNC(=O)c2c(C)sc3c(O)nc(-c4ccccn4)nc23)[nH]c1=O [drawing 1283]	0
COc1cnc(CNC(=O)c2sc3c(O)nc(-c4ccccn4)nc3c2C)[nH]c1=O [drawing 1284]	0
O=C(c1csc2c(O)nc(-c3ccccn3)nc12)N1CCNC(c2ccc(Cl)cc2)C1 (centres unmarked) [drawing 1285]	0
Oc1nc(-c2ccccn2)nc2c(CC3CCNC3)csc12 (centres unmarked) [drawing 1286]	1 to 25
O=c1[nH]c(-c2ccccn2)nc2c([C@@H]3O[C@H](CO)[C@@H](O)[C@H]3O)csc12 [drawing 1287]	1 to 25
Cn1cnc(-c2nc(O)c3c(-c4ccccc4)c(-c4ccncc4)sc3n2)c1 [drawing 1288]	25 to 50
COCCNc1nc(-c2ccccn2)nc(-c2cccc(OCCN(C)C)c2)c1Oc1ccccc1 [drawing 1289]	25 to 50
COCCNc1nc(-c2cn(C)cn2)nc2sc(-c3ccncc3)c(-c3ccccc3)c12 [drawing 1290]	0
COc1nc(-c2cn(C)cn2)nc2sc(-c3ccncc3)c(-c3ccccc3)c12 [drawing 1291]	1 to 25
OCC1(c2ccc(-c3nc(-c4ccccn4)nc(-c4ccc(C5(CO)CC5)cc4)c3Oc3ccccc3)cc2)CC1 [drawing 1292]	51 to 75
COc1ccc(COC[C@H]2O[C@@H](c3csc4c(=O)[nH]c(-c5ccccn5)nc34)[C@H](O)[C@@H]2O)cc1 [drawing 1293]	0
OCC1(c2ccc(-c3nc(-c4ccccn4)nc(O)c3Oc3ccccc3)cc2)CC1 [drawing 1294]	1 to 25
COCCNc1nc(-c2nccn2C)nc2sc(-c3ccccc3)c(-c3ccccc3)c12 [drawing 1295]	76 to 100
Cn1ccnc1-c1nc(O)c2c(-c3ccccc3)c(-c3ccccc3)sc2n1 [drawing 1296]	0
Cn1cnc(-c2nc(O)c3c(-c4ccccc4)c(-c4ccc(CNC(=O)OC(C)(C)C)cc4)sc3n2)c1 [drawing 1297]	0
COCCNc1nc(-c2ccccn2)nc2c1c(-c1ccccc1)nn2-c1ccccn1 [drawing 1298]	1 to 25
Oc1nc(-c2ccccn2)nc2c1c(-c1ccccc1)nn2-c1ccccn1 [drawing 1299]	0

SMILES	inhibition at 10 µM [%]
COc1nc(-c2ccccn2)nc2c1c(-c1ccccc1)nn2-c1ccccn1 [drawing 1300]	25 to 50
COCC(C)Nc1nc(-c2ccccn2)nc2sc(-c3ccncc3)c(-c3ccccc3)c12 (centres unmarked) [drawing 1301]	0
Nc1nc(O)c2sc(-c3cccc(C(=O)NC4CCNC4=O)c3)cc2n1 (centres unmarked) [drawing 1302]	0
Nc1nc(O)c2sc(-c3cccc(C(=O)N4CCC(O)C4)c3)cc2n1 (centres unmarked) [drawing 1303]	0
NC(=O)C1CCCN1C(=O)c1cccc(-c2cc3nc(N)nc(O)c3s2)c1 (centres unmarked) [drawing 1304]	1 to 25
Nc1nc(O)c2sc(-c3cccc(C(=O)NCc4ncc[nH]4)c3)cc2n1 [drawing 1305]	0
Nc1nc(O)c2sc(-c3cccc(C(=O)NCc4cccc(O)n4)c3)cc2n1 [drawing 1306]	0
COC(=O)c1nc(-c2ccccn2)nc(O)c1O [drawing 1307]	0
Oc1nc(-c2ccccn2)nc2c(-c3ccccc3)c(-c3ccncc3)sc12 [drawing 1308]	0
Cn1cnc(-c2nc(O)c3sc(-c4ccncc4)c(-c4ccccc4)c3n2)c1 [drawing 1309]	0
COCC(C)Nc1nc(-c2ccccn2)nc(C(=O)NCCCc2c[nH]cn2)c1Oc1ccccc1 (centres unmarked) [drawing 1310]	1 to 25
Nc1nc(-c2ccccn2)nc(C(=O)NCCc2ccncc2)c1Oc1ccccc1 [drawing 1311]	1 to 25
COc1nc(-c2ccccn2)nc(Oc2cccc(C(F)(F)F)c2)c1OC [drawing 1312]	0
Oc1nc(-c2ccccn2)nc2c(Br)c(-c3ccccc3)sc12 [drawing 1313]	0
CC(C)(C)c1sc2c(O)nc(-c3ccccn3)nc2c1Br [drawing 1314]	1 to 25
Cc1ccc(-c2cc3nc(-c4ccccn4)nc(O)c3s2)cc1 [drawing 1315]	76 to 100
Oc1nc(-c2ccccn2)nc2cc(-c3ccccc3Cl)sc12 [drawing 1316]	1 to 25
COc1c(O)nc(-c2ccccn2)nc1Oc1cccc(C(F)(F)F)c1 [drawing 1317]	1 to 25
Oc1nc(-c2ccccn2)nc(Oc2cccc(C(F)(F)F)c2)c1O [drawing 1318]	1 to 25
Oc1nc(-c2ccccn2)nc2cc(-c3ccc(-c4ccccc4)cc3)sc12 [drawing 1319]	25 to 50
Cc1ccc(-c2csc3c(O)nc(-c4ccccn4)nc23)cc1 [drawing 1320]	1 to 25
Oc1nc(-c2ccccn2)nc2cc(-c3ccncc3)sc12 [drawing 1321]	0
Oc1nc(-c2ccccn2)nc2cc(-c3ccccc3)sc12 [drawing 1322]	25 to 50
COc1ccc(-c2cc3nc(-c4ccccn4)nc(O)c3s2)cc1 [drawing 1323]	1 to 25
Oc1nc(-c2ccccn2)nc2cc(-c3cccc(Br)c3)sc12 [drawing 1324]	25 to 50
COc1nc(-c2ccccn2)nc(Oc2cccc(C(F)(F)F)c2)c1O [drawing 1325]	1 to 25
COCCN(C)c1nc(-c2nccn2C)nc2sc(-c3ccccc3)c(-c3ccccc3)c12 [drawing 1326]	76 to 100

SMILES	inhibition at 10 µM [%]
CC(C)OCCNc1nc(-c2nccn2C)nc2sc(-c3ccccc3)c(-c3ccccc3)c12 [drawing 1327]	76 to 100
Cn1ccnc1-c1nc(NCCOC(F)(F)F)c2c(-c3ccccc3)c(-c3ccccc3)sc2n1 [drawing 1328]	76 to 100
CC(O)CNc1nc(-c2nccn2C)nc2sc(-c3ccccc3)c(-c3ccccc3)c12 (centres unmarked) [drawing 1329]	1 to 25
COCCCNc1nc(-c2nccn2C)nc2sc(-c3ccccc3)c(-c3ccccc3)c12 [drawing 1330]	76 to 100
COC1CCN(c2nc(-c3nccn3C)nc3sc(-c4ccccc4)c(-c4ccccc4)c23)C1 (centres unmarked) [drawing 1331]	76 to 100
CCOCCOc1nc(-c2nccn2C)nc2sc(-c3ccccc3)c(-c3ccccc3)c12 [drawing 1332]	0
CCN(CC)CCOc1nc(-c2nccn2C)nc2sc(-c3ccccc3)c(-c3ccccc3)c12 [drawing 1333]	76 to 100
COCCNc1nc(-c2ccncn2)nc2sc(-c3ccccc3)c(-c3ccccc3)c12 [drawing 1334]	1 to 25
CCOCCNc1nc(-c2nccn2C)nc2sc(-c3ccccc3)c(-c3ccccc3)c12 [drawing 1335]	76 to 100
Cn1ccnc1-c1nc(NCCOC2CC2)c2c(-c3ccccc3)c(-c3ccccc3)sc2n1 [drawing 1336]	76 to 100
COCC(C)Nc1nc(-c2nccn2C)nc2sc(-c3ccccc3)c(-c3ccccc3)c12 (centres unmarked) [drawing 1337]	76 to 100
CC(CO)Nc1nc(-c2nccn2C)nc2sc(-c3ccccc3)c(-c3ccccc3)c12 (centres unmarked) [drawing 1338]	25 to 50
Cn1ccnc1-c1nc(NCCCO)c2c(-c3ccccc3)c(-c3ccccc3)sc2n1 [drawing 1339]	1 to 25
COCCNc1nc(-c2nccn2C)nc2sc(-c3ccccc3)c(-c3ccccc3Cl)c12 [drawing 1340]	76 to 100
COCCNc1nc(-c2nccn2C)nc2sc(-c3ccccc3Cl)c(-c3ccccc3)c12 [drawing 1341]	76 to 100
COCCNc1nc(-c2nccn2C)nc2sc(-c3ccncc3)c(-c3ccccc3)c12 [drawing 1342]	0
COCCNc1nc(-c2cn(C)cn2)nc2sc(-c3ccccc3)c(-c3ccccc3)c12 [drawing 1343]	76 to 100
COCCNc1nc(-c2nccn2C)nc2sc(C)c(-c3ccccc3)c12 [drawing 1344]	51 to 75
COCCNc1nc(-c2cn(C)cn2)nc2sc(C)c(-c3ccccc3)c12 [drawing 1345]	25 to 50
COCCNc1nc(-c2nccn2C)nc2sc(-c3cccc(OC)c3)c(-c3ccccc3)c12 [drawing 1346]	76 to 100
CC(C)COc1ccc(-c2c(-c3ccccc3)sc3c(O)nc(-c4nccn4C)nc23)cn1 [drawing 1347]	51 to 75
Cn1ccnc1-c1nc(O)c2sc(-c3ccccc3)c(-c3ccccc3)c2n1 [drawing 1348]	51 to 75
COCCNc1nc(-c2nccn2C)nc2sc(-c3ccccc3)c(-c3ccc(OC)cc3)c12 [drawing 1349]	76 to 100
COCCNc1nc(-c2nccn2C)nc2sc(C3CCOCC3)c(-c3ccccc3)c12 [drawing 1350]	51 to 75
COCCNc1nc(-c2cccc(N)n2)nc2sc(-c3ccccc3)c(-c3ccccc3)c12 [drawing 1351]	51 to 75
Cn1ccnc1-c1nc(O)c2sc(-c3ccccc3)c(-c3cccc(C(F)(F)F)c3)c2n1 [drawing 1352]	0
